This note sets out measurements from US20250122207A1, “AP2 ASSOCIATED KINASE 1 INHIBITORS AND USES THEREOF” (Satellos Bioscience Inc., priority 2023, published 2025).

Read-outs that look alike come from different tables or passages of the source.

Experiment [1] has as its target T1, AAK1 (amino acids T27-A365) (Homo sapiens, UniProt Q2M2I8).
T1 construct: against AAK1 (amino acids T27-A365); 6His (N, cleaved yes)
Nature of the experiment: AAK1 pSENs assay. The format is biochemical. The procedure:
(§1) The recombinant proteins were independently expressed in Escherichia coli BL21(DE3) cells cultured in Luria-Bertani (LB) medium until OD600 reached 0.6-0.8, then cooled to 15° C. and supplemented with 0.5 mM isopropyl 1-thio-D-galactopyranoside (IPTG) induce protein expression 16 h. Cells were harvested and resuspended in lysis buffer (50 mM HEPES pH 7.5, 500 mM NaCl, 5 mM imidazole, 5% glycerol, 0.5 mM Tris (2-carboxyethyl) phosphine (TCEP), cOmplete Protease Inhibitor Tablet (Roche)) and lysed by microfludics high pressure homogenizer (UH-06, Union-Biotech). Proteins were purified using […] chromatography (His FF column, Bestchrom) and eluted stepwise in binding buffer with 20-300 mM imidazole. Removal of the hexahistidine tag was performed at 4° C. overnight using recombinant TEV protease and reacted with BirA to obtain the corresponding biotinylated-AAK1, BIKE or GAK proteins. Further separated in the reverse Strep column (Strep-Tactin® XT, IBA). The Biotin elution sample was collected containing untagged biotinylated protein was then purified by Ion-exchange chromatography (Mono Q 10/100 GL, Cytiva) and Size-exclusion chromatography (HiLoad 16/600 Superdex 200 pg, Cytiva). The pure protein was stored in a storage buffer 50 mM HEPES (pH 7.5), 300 mM NaCl, 5% glycerol at −80° C. Protein were characterized by SDS-PAGE, LC-MS and aSEC.
This example describes one illustrative method for determining the IC50 of the compounds of the present invention against AAK1 (amino acids T27-A365). AAK1 protein was dissolved at 20 nM in 1× enzyme solution (50 mM HEPES pH7.5, 10 mM MgCl2, 1 mM DTT, 1% glycerol, 0.5 mM EGTA, 0.01% Briji35, 0.02% BSA) and 12.5 ul was incubated with 250 nl DMSO or 250 nl compound in DMSO at 25° C. for 15 min. The reaction was started by addition of 12.5 ul of 30 uM AQT0759 (Assayquant, CSKS-AQT0759B) and 70 uM ATP which were diluted in 1× substrate dilution buffer (50 mM HEPES pH7.5, 10 mM MgCl2, 1 mM DTT, 1% glycerol, 0.5 mM EGTA, 0.01% Briji35).

Experiment [2] addresses AAK1 (Homo sapiens, UniProt Q2M2I8). Nature of the experiment: pAP2M1 cell-based assay (in-cell Western). An excerpt:
pAP2M1 Cell-Based Assay (in-Cell Western):
The plate was read on Licor Odyssey CLx imaging system (LICOR) to acquire fluorescence intensity at 700 channel and 800 channel.
Data analysis: Fluorescence intensity at 700 channel served as internal standard and 800 channel were normalized with 700 channel.

In experiment [3] the target is T2, BIKE (amino acids S38-E345) (K320A, K321A) (Homo sapiens, UniProt Q9NSY1, K320A/K321A).
T2 construct: against BIKE (amino acids S38-E345) (K320A, K321A); 6His (N, cleaved yes)
T2 sequence (Q9NSY1 38-345 K320A/K321A): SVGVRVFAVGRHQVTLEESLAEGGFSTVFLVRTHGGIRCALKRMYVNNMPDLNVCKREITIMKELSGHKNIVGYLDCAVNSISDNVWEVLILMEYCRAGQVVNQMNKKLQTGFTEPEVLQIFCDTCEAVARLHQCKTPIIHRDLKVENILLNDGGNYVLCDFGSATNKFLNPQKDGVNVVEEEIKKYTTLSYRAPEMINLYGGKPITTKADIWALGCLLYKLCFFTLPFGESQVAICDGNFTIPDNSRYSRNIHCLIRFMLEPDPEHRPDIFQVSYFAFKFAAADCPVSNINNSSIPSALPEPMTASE
In words: BIKE pSENs assay. It counts as biochemical. As to the method:
as §1
BIKE protein was dissolved at 20 nM in 1× enzyme solution (50 mM HEPES pH7.5, 10 mM MgCl2, 1 mM DTT, 1% glycerol, 0.5 mM EGTA, 0.01% Briji35, 0.02% BSA) and 12.5 ul was incubated with 250 nl DMSO or 250 nl compound in DMSO at 25° C. for 15 min. The reaction was started by addition of 12.5 ul of 30 uM AQT0759 (Assayquant, CSKS-AQT0759B) and 40 uM ATP which were diluted in 1× substrate dilution buffer (50 mM HEPES pH7.5, 10 mM MgCl2, 1 mM DTT, 1% glycerol, 0.5 mM EGTA, 0.01% Briji35).

The mark [4] stands for this setting: class symbols, read-out: AAK1 pSENs: EIC50.
The mark [5] stands for this setting: Hela cells co-transfected with AP2M1 and AAK1, 3 hr treatment, class symbols, read-out: AAK1 In-cell Western: IC50.
Where [6] appears, read: class symbols, read-out: BIKE pSENs: IC50.

Chain of AAK1 (Q2M2I8 whole entry): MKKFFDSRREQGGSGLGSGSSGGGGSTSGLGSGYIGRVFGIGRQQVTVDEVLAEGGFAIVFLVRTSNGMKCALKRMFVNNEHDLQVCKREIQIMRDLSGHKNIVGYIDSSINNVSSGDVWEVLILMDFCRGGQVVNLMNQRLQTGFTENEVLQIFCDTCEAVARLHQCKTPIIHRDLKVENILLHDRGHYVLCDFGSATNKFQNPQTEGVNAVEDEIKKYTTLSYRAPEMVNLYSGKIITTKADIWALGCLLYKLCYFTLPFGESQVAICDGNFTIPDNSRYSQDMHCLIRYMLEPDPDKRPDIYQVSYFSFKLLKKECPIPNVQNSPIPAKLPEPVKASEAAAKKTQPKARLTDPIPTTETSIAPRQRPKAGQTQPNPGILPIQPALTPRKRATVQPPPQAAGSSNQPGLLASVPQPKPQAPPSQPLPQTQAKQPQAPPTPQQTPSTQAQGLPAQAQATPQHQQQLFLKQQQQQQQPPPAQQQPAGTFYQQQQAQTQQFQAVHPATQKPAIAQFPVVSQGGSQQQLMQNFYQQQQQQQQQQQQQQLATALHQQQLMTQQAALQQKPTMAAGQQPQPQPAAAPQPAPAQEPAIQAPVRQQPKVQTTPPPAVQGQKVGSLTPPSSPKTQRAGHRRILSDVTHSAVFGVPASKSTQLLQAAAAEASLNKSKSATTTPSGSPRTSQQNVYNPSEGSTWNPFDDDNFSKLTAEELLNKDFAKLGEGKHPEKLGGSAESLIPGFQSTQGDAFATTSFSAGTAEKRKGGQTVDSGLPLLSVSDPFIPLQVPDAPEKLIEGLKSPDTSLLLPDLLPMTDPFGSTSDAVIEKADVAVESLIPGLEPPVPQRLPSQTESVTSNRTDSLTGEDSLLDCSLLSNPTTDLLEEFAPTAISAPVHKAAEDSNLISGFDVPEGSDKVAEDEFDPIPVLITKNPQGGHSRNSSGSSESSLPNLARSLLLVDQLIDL
T1 sequence (Q2M2I8 27-365): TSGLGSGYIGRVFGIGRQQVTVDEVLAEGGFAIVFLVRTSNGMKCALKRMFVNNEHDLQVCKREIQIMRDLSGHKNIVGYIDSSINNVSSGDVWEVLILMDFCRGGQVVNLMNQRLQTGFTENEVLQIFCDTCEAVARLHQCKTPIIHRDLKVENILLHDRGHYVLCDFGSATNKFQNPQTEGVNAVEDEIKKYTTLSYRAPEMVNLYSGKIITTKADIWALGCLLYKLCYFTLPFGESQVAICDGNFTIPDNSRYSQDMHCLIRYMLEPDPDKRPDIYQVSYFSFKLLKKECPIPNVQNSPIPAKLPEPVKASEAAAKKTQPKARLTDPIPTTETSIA

Turning to `CN1C[C@@H](OC(=O)N2CCN(c3nc4c(-c5cccnc5OC5CCOCC5)cnn4cc3F)CC2)CC1=O` [Compound I-122, [(3S)-1-methyl-5-oxo-pyrrolidin-3-yl]4-[6-fluoro-3-(2-tetrahydropyran-4-yloxy-3-pyridyl)pyrazolo[1,5-a]pyrimidin-5-yl]piperazine-1-carboxylate], the values for the IC50 in experiment [1] (setting [4]), in experiment [2] (setting [5]) and in experiment [3] (setting [6]) were 0.051 to 0.15 µM, 0.501 to 1.5 µM and 0.151 to 0.5 µM, respectively.

Turning to `CN1C[C@@H](OC(=O)N2CCN(c3nc4c(-c5cccnc5OC5CCCC5)cnn4cc3F)CC2)CC1=O` [Compound I-121, [(3S)-1-methyl-5-oxo-pyrrolidin-3-yl]-4-[3-[2-(cyclopentoxy)-3-pyridyl]-6-fluoro-pyrazolo[1,5-a]pyrimidin-5-yl]piperazine-1-carboxylate], the IC50 in experiment [1] (setting [4]) was 0.051 to 0.15 µM; in experiment [2] (setting [5]), above 1.5 µM; in experiment [3] (setting [6]), 0.501 to 1.5 µM.

With `COC(=O)N1CC(Oc2ncccc2-c2cnn3ccc(NCCN(C)C(=O)OC(C)(C)C)nc23)C1` [Compound I-64, Methyl3-[[3-[5-[2-[tert-butoxycarbonyl(methyl)amino]ethylamino]pyrazolo[1,5-a]pyrimidin-3-yl]-2-pyridyl]oxy]azetidine-1-carboxylate], the IC50 was 0.001 to 0.05 µM in experiment [1] (setting [4]), 0.051 to 0.15 µM in experiment [2] (setting [5]) and 0.051 to 0.15 µM in experiment [3] (setting [6]).

Regarding `CC1(OC(=O)N2CCN(c3ccn4ncc(-c5cccnc5OC5COC5)c4n3)CC2)COC1` [Compound I-18, (3-Methyloxetan-3-yl)-4-[3-[2-(oxetan-3-yloxy)-3-pyridyl]pyrazolo[1,5-a]pyrimidin-5-yl]piperazine-1-carboxylate], the IC50 in experiment [1] (setting [4]) fell in the range of 0.001 to 0.05 µM; in experiment [2] (setting [5]), 0.151 to 0.5 µM; in experiment [3] (setting [6]), 0.501 to 1.5 µM.

With `O=C1C[C@H](OC(=O)N2CCN(c3ccn4ncc(-c5cccnc5OC5COC5)c4n3)CC2)CN1` [Compound I-25, [(3S)-5-Oxopyrrolidin-3-yl]4-[3-[2-(oxetan-3-yloxy)-3-pyridyl]pyrazolo[1,5-a]pyrimidin-5-yl]piperazine-1-carboxylate], the IC50 in experiment [1] (setting [4]) was 0.001 to 0.05 µM; in experiment [2] (setting [5]) it was above 1.5 µM; in experiment [3] (setting [6]) it was 0.151 to 0.5 µM.

With `CN1C[C@@H](OC(=O)N2CCN(c3ccn4ncc(-c5cccnc5OC5CCOC5)c4n3)CC2)CC1=O` (stereo partly drawn) [Compound I-119, [(3S)-1-methyl-5-oxo-pyrrolidin-3-yl]4-[3-(2-tetrahydrofuran-3-yloxy-3-pyridyl)pyrazolo[1,5-a]pyrimidin-5-yl]piperazine-1-carboxylate], the IC50 is 0.051 to 0.15 µM in experiment [1] (setting [4]), above 1.5 µM in experiment [2] (setting [5]) and 0.501 to 1.5 µM in experiment [3] (setting [6]).

As to `C[C@@]1(OC(=O)N2CCN(c3ccn4ncc(-c5cccnc5OC5CC5)c4n3)CC2)CCN(CCO)C1` [Compound I-52, [(3R)-1-(2-hydroxyethyl)-3-methyl-pyrrolidin-3-yl]-4-[3-[2-(cyclopropoxy)-3-pyridyl]pyrazolo[1,5-a]pyrimidin-5-yl]piperazine-1-carboxylate], the IC50 in experiment [1] (setting [4]) fell in the range of 0.001 to 0.05 µM; in experiment [2] (setting [5]), 0.151 to 0.5 µM; in experiment [3] (setting [6]), 0.501 to 1.5 µM.

`COC(=O)N1CC(Oc2ncccc2-c2cnn3ccc(N4CCN(C(=O)O[C@@H]5CNC(=O)C5)CC4)nc23)C1` [Compound I-58, [(3S)-5-oxopyrrolidin-3-yl]-4-[3-[2-(1-methoxycarbonylazetidin-3-yl)oxy-3-pyridyl]pyrazolo[1,5-a]pyrimidin-5-yl]piperazine-1-carboxylate]: the IC50 in experiment [1] (setting [4]) lay in the range of 0.001 to 0.05 µM; in experiment [2] (setting [5]) it was 0.501 to 1.5 µM; in experiment [3] (setting [6]), 0.151 to 0.5 µM.

For `CN1C[C@@H](OC(=O)N2CCN(c3nc4c(-c5cccnc5OC5CCOC5)cnn4cc3F)CC2)CC1=O` (stereo partly drawn) [Compound I-120, [(3S)-1-methyl-5-oxo-pyrrolidin-3-yl]4-[6-fluoro-3-(2-tetrahydrofuran-3-yloxy-3-pyridyl)pyrazolo[1,5-a]pyrimidin-5-yl]piperazine-1-carboxylate], the values for the IC50 in experiment [1] (setting [4]), in experiment [2] (setting [5]) and in experiment [3] (setting [6]) were 0.051 to 0.15 µM, above 1.5 µM and 0.151 to 0.5 µM, respectively.

As for `O=C1C[C@H](OC(=O)N2CCN(c3ccn4ncc(-c5cccnc5OC5CC5)c4n3)CC2)CN1CCO` [Compound I-38, [(3S)-1-(2-Hydroxyethyl)-5-oxo-pyrrolidin-3-yl]-4-[3-[2-(cyclopropoxy)-3-pyridyl]pyrazolo[1,5-a]pyrimidin-5-yl]piperazine-1-carboxylate], the IC50 in experiment [1] (setting [4]) is 0.001 to 0.05 µM; in experiment [2] (setting [5]), above 1.5 µM; in experiment [3] (setting [6]), 0.151 to 0.5 µM.

Regarding `CC(C)Oc1ncccc1-c1cnn2ccc(N3CCN(C(=O)O[C@@H]4CNC(=O)C4)CC3)nc12` [Compound I-26, [(3S)-5-Oxopyrrolidin-3-yl]-4-[3-(2-isopropoxy-3-pyridyl)pyrazolo[1,5-a]pyrimidin-5-yl]piperazine-1-carboxylate], the IC50 was in the range of 0.001 to 0.05 µM in experiment [1] (setting [4]), 0.501 to 1.5 µM in experiment [2] (setting [5]) and 0.501 to 1.5 µM in experiment [3] (setting [6]).

For `CC(C)(C)OC(=O)N1CCC(N2C[C@@H](OC(=O)N3CCN(c4ccn5ncc(-c6cccnc6OC6CC6)c5n4)CC3)CC2=O)CC1` [Compound I-30, [(3S)-1-(1-tert-Butoxycarbonyl-4-piperidyl)-5-oxo-pyrrolidin-3-yl]4-[3-[2-(cyclopropoxy)-3-pyridyl]pyrazolo[1,5-a]pyrimidin-5-yl]piperazine-1-carboxylate], the IC50 was 0.051 to 0.15 µM in experiment [1] (setting [4]), above 1.5 µM in experiment [2] (setting [5]) and 0.501 to 1.5 µM in experiment [3] (setting [6]).

For the compound `CC1(OC(=O)N2CCN(c3ccn4ncc(-c5cccnc5OC5CC5)c4n3)CC2)COC1` [Compound I-2, (3-methyloxetan-3-yl)-4-[3-[2-(cyclopropoxy)-3-pyridyl]pyrazolo[1,5-a]pyrimidin-5-yl]piperazine-1-carboxylate], the IC50 was 0.001 to 0.05 µM in experiment [1] (setting [4]), 0.051 to 0.15 µM in experiment [2] (setting [5]) and 0.151 to 0.5 µM in experiment [3] (setting [6]).

As to `CN1C[C@@H](OC(=O)N2CCN(c3ccn4ncc(-c5cc(F)cnc5OC5CC5)c4n3)CC2)CC1=O` [Compound I-86], the figures for the IC50 in experiment [1] (setting [4]), in experiment [2] (setting [5]) and in experiment [3] (setting [6]) were 0.001 to 0.05 µM, 0.151 to 0.5 µM and 0.151 to 0.5 µM, respectively.

As for `O=C(O[C@H]1CC(=O)N(C2CCNCC2)C1)N1CCN(c2ccn3ncc(-c4cccnc4OC4CC4)c3n2)CC1` [Compound I-32, [(3S)-5-Oxo-1-(4-piperidyl)pyrrolidin-3-yl]4-[3-[2-(cyclopropoxy)-3-pyridyl]pyrazolo[1,5-a]pyrimidin-5-yl]piperazine-1-carboxylate], the IC50 in experiment [1] (setting [4]) was 0.001 to 0.05 µM; in experiment [2] (setting [5]) it was above 1.5 µM; in experiment [3] (setting [6]), 0.051 to 0.15 µM.

As to `[2H]C1([2H])N(C(=O)O[C@@H]2CNC(=O)C2)C([2H])([2H])C([2H])([2H])N(c2ccn3ncc(-c4cccnc4OC4CC4)c3n2)C1([2H])[2H]` [Compound I-72, [(3S)-5-oxopyrrolidin-3-yl]4-[3-[2-(cyclopropoxy)-3-pyridyl]pyrazolo[1,5-a]pyrimidin-5-yl]-2,2,3,3,5,5,6,6-octadeuterio-piperazine-1-carboxylate], the IC50 in experiment [1] is 0.001 to 0.05 µM; in experiment [2], 0.501 to 1.5 µM; in experiment [3] it was 0.151 to 0.5 µM.

Turning to `O=C1C[C@@H](OC(=O)N2CCN(c3ccn4ncc(-c5cccnc5OC5CC5)c4n3)CC2)CN1` [Compound I-10, [(3R)-5-Oxopyrrolidin-3-yl]-4-[3-[2-(cyclopropoxy)-3-pyridyl]pyrazolo[1,5-a]pyrimidin-5-yl]piperazine-1-carboxylate], the IC50 in experiment [1] (setting [4]) was in the range of 0.001 to 0.05 µM; in experiment [2] (setting [5]) it was 0.501 to 1.5 µM; in experiment [3] (setting [6]) it was 0.151 to 0.5 µM.
